Measured values reported in patent publication US7968591B2, “1,3-disubstituted 4-methyl-1H-pyrrole-2-carboxamides and their use in medicaments” (Gruenenthal GmbH, priority 2006, dated 2011).

Tested on: batrachotoxin (BTX) binding site of the sodium channel
Assay: Affinity for the batrachotoxin (BTX) binding site of the sodium channel
Details: rat cerebrocortex synaptosomes, [3H]-Batrachotoxinin A20α benzoate 10 nM

SMILES	BTX (Na+ channel) (% inhibition at 10 μM) [%]
Cc1ccc(-c2c(C)cn(Cc3ccccc3)c2C(=O)NCCN2CCCC2)cc1 [Example 74, 1-benzyl-4-methyl-3-p-tolyl-1H-pyrrole-2-carboxylic acid (2-pyrrolidin-1-ylethyl)-amide]	101
COc1ccc(CN2CCN(C(=O)c3c(-c4ccco4)c(C)cn3Cc3ccc(F)cc3)CC2)cc1F [Example 75, [1-(4-fluorobenzyl)-3-furan-2-yl-4-methyl-1H-pyrrol-2-yl]-[4-(3-fluoro-4-methoxybenzyl)-piperazin-1-yl]-methanone]	89
COc1ccc(-c2c(C)cn(C)c2C(=O)NCc2ccc(OC)cc2OC)cc1 [Example 76, 3-(4-methoxyphenyl)-1,4-dimethyl-1H-pyrrole-2-carboxylic acid 2,4-dimethoxybenzylamide]	41
Cc1cn(Cc2ccccc2)c(C(=O)NCCN2CCCC2)c1-c1ccccc1 [Example 77, 1-benzyl-4-methyl-3-phenyl-1H-pyrrole-2-carboxylic acid (2-pyrrolidin-1-ylethyl)-amide]	91
Cc1cn(C)c(C(=O)NCCCN2CCCCC2C)c1-c1ccc(Cl)cc1 (stereo not drawn) [Example 78, 3-(4-chlorophenyl)-1,4-dimethyl-1H-pyrrole-2-carboxylic acid [3-(2-methylpiperidin-1-yl)-propyl]-amide]	86
Cc1cn(Cc2ccccc2)c(C(=O)NC(C)c2ccc3ccccc3c2)c1-c1ccco1 (stereo not drawn) [Example 81, 1-benzyl-3-furan-2-yl-4-methyl-1H-pyrrole-2-carboxylic acid (1-naphthalen-2-ylethyl)-amide]	35
